Measurements as given in patent US12391679B2, “Benzamide-substituted bicyclic imidazo- and pyrazolo-fused -pyridine, -pyrimide, and -pyridazine compounds for treatment of inflammatory diseases” (ONCO3R Therapeutics BV, priority 2019, dated 2025).
pIC50: −log10 of the molar value.

What was measured:
Type in all cases: biochemical
[1] = target: T1, SIK1 (Homo sapiens, UniProt P57059); experiment: ADP-Glo kinase assay, SIK1
T1 construct: purchased Carna Biosciences 02-131
Procedure: (§1) The ADP-Glo™ kinase assay is a luminescent technology assay which measures the ADP formed from a kinase reaction. […] In a second step the kinase reactions are terminated and all the remaining ATP is depleted. In a final step the ADP is converted into ATP and this newly synthesized ATP is measured by using a luciferase/luciferin reaction. The generated light is measured using an Envision plate reader, wherein the luminescent signal obtained positively correlates with the kinase activity.
(§2) 1% DMSO and 10 μM staurosporine final concentrations are used as negative and positive controls.
(§3) 2 μL enzyme-substrate mixture is added to the assay plates.
(§4) The reaction is started by adding 2 μL diluted ATP on the assay plates. Plates are centrifuged for a few seconds at 1000 rpm and gently shaken for […] followed by an incubation at RT for 120 min.
(§5) The reactions are stopped and the unconsumed ATP is depleted by adding 5 μL ADP-Glo Reagent (Promega, Cat #V9120) to the reaction. The plates are centrifuged for a few seconds at 1000 rpm and incubated at RT for 40 min (ATP depletion).
(§6) The ADP is converted to ATP and luciferase and luciferin is introduced to detect ATP by adding 10 μL Kinase Detection Reagent (Promega, Cat #V913B+V914r) to the reaction. The plates are centrifuged for a few seconds at 1000 rpm and incubated at RT for 30 min (ADP detection).
(§7) Luminescence is measured on an Envision plate reader (PerkinElmer Inc.).

[2] = target: T2, SIK2 (Homo sapiens, UniProt Q9H0K1); experiment: ADP-Glo kinase assay, SIK2
T2 construct: purchased ThermoFisher Scientific PV4792
Procedure: as §1, §2, §3, §4, §5, §6, §7

[3] = target: T3, SIK3 (Homo sapiens, UniProt Q9Y2K2); experiment: ADP-Glo kinase assay, SIK3
T3 construct: purchased SignalChem S12-11G-100
Procedure: as §1, §2, §3, §4, §5, §6, §7

T3 sequence (Q9Y2K2 59-365 limits assumed): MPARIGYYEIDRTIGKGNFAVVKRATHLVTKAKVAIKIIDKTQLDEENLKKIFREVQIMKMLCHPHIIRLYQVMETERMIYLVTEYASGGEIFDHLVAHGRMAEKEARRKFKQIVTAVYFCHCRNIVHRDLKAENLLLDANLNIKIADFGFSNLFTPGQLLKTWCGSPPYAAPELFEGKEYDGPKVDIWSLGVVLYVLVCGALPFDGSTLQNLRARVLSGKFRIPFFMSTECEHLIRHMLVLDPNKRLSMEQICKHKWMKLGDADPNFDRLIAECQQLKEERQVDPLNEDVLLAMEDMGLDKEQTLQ
T1 sequence (P57059 whole entry): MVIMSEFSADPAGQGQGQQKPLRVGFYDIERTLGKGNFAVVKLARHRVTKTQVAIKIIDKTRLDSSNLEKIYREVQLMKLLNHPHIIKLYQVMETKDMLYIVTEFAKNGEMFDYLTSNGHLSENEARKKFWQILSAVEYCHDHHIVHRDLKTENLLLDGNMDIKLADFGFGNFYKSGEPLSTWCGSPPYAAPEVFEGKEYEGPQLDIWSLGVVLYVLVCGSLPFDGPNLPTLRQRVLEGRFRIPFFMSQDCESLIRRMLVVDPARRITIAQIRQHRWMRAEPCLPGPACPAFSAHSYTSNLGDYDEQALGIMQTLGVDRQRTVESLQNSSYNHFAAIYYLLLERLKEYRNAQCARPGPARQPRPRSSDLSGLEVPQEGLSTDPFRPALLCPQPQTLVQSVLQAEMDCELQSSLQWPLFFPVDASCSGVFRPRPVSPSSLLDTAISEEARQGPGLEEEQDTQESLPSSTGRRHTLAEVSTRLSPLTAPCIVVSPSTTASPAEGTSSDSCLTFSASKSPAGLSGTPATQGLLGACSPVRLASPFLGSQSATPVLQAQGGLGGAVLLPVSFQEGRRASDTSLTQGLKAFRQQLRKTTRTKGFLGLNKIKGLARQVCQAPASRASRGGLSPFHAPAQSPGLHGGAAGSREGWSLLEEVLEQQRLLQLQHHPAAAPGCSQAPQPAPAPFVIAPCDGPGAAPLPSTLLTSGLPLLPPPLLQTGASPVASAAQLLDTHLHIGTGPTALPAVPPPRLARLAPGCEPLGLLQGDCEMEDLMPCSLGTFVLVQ
T2 sequence (Q9H0K1 whole entry): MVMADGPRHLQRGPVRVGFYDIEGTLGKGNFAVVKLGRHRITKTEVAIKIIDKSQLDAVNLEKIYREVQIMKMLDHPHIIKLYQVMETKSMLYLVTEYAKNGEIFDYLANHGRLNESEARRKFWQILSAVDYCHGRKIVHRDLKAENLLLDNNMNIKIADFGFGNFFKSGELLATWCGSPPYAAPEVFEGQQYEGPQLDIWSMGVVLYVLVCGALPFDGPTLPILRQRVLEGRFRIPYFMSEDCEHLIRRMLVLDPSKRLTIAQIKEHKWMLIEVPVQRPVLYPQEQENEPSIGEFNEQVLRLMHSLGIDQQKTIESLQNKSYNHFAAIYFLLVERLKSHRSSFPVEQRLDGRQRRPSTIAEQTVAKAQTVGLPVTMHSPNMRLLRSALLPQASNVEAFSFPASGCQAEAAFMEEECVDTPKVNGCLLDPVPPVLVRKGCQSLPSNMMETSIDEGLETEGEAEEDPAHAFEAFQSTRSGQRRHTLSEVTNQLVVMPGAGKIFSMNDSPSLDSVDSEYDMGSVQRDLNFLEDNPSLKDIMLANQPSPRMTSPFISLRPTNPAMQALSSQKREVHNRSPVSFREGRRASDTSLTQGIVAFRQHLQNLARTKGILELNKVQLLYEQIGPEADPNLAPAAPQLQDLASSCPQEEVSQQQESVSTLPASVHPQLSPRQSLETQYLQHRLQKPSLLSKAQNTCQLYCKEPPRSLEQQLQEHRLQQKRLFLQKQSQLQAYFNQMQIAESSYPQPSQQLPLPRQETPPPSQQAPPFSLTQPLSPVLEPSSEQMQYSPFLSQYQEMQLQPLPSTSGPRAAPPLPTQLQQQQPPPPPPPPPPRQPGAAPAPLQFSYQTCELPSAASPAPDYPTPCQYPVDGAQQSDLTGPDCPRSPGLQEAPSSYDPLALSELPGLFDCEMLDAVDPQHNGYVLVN

pIC50 [1] | pIC50 [2] | pIC50 [3] | SMILES
< 6.30 | < 6.30 | 7.00 to 8.00 | C=CCC(C#N)(CC=C)c1ccn2c(-c3cc(OC)c(C(=O)NC4CC4)c(OC(F)F)c3)cnc2c1 [Cpd 36, 4-[7-(1-allyl-1-cyano-but-3-enyl)imidazo[1,2-a]pyridin-3-yl]-N-cyclopropyl-2-(difluoromethoxy)-6-methoxy-benzamide]
< 6.30 | 6.30 to 7.00 | 7.00 to 8.00 | COc1cc(-c2cnc3cc(C4CCOCC4)ccn23)cc(OC)c1C(=O)NCC(F)(F)F [Cpd 37, 2,6-dimethoxy-4-(7-tetrahydropyran-4-ylimidazo[1,2-a]pyridin-3-yl)-N-(2,2,2-trifluoroethyl)benzamide]
< 6.30 | < 6.30 | < 6.30 | COc1cc(-c2cnc3cc(C(C)(C)C#N)ccn23)cc(OC(F)F)c1C(=O)N1CCS(=O)(=O)CC1 [Cpd 38, 2-[3-[3-(difluoromethoxy)-4-(1,1-dioxo-1,4-thiazinane-4-carbonyl)-5-methoxy-phenyl]imidazo[1,2-a]pyridin-7-yl]-2-methyl-propanenitrile]
< 6.30 | < 6.30 | < 6.30 | CCN(C)C(=O)c1c(OC)cc(-c2cnc3cc(C(C)(C)C#N)ccn23)cc1OC(F)F [Cpd 40, 4-[7-(1-cyano-1-methyl-ethyl)imidazo[1,2-a]pyridin-3-yl]-2-(difluoromethoxy)-N-ethyl-6-methoxy-N-methyl-benzamide]
< 6.30 | < 6.30 | < 6.30 | COc1cc(-c2cnc3cc(C(C)(C)C#N)ccn23)cc(OC(F)F)c1C(=O)N1CCC(O)CC1 [Cpd 41, 2-[3-[3-(difluoromethoxy)-4-(4-hydroxypiperidine-1-carbonyl)-5-methoxy-phenyl]imidazo[1,2-a]pyridin-7-yl]-2-methyl-propanenitrile]
< 6.30 | < 6.30 | 6.30 to 7.00 | COc1cc(-c2cnc3cc(C(C)(C)C#N)ccn23)cc(OC(F)F)c1C(=O)NCCN1CCOCC1 [Cpd 42, 4-[7-(1-cyano-1-methyl-ethyl)imidazo[1,2-a]pyridin-3-yl]-2-(difluoromethoxy)-6-methoxy-N-(2-morpholinoethyl)benzamide]
< 6.30 | < 6.30 | 7.00 to 8.00 | COc1cc(-c2cnc3cc(C(C)(C)C#N)ccn23)cc(OC(F)F)c1C(=O)NC1COC1 [Cpd 43, 4-[7-(1-cyano-1-methyl-ethyl)imidazo[1,2-a]pyridin-3-yl]-2-(difluoromethoxy)-6-methoxy-N-(oxetan-3-yl)benzamide]
< 6.30 | < 6.30 | 7.00 to 8.00 | COc1cc(-c2cnc3cc(C(C)(C)C#N)ccn23)cc(OC(F)F)c1C(=O)NCCCO [Cpd 44, 4-[7-(1-cyano-1-methyl-ethyl)imidazo[1,2-a]pyridin-3-yl]-2-(difluoromethoxy)-N-(3-hydroxypropyl)-6-methoxy-benzamide]
< 6.30 | < 6.30 | 6.30 to 7.00 | COCCCNC(=O)c1c(OC)cc(-c2cnc3cc(C(C)(C)C#N)ccn23)cc1OC(F)F [Cpd 45, 4-[7-(1-cyano-1-methyl-ethyl)imidazo[1,2-a]pyridin-3-yl]-2-(difluoromethoxy)-6-methoxy-N-(3-methoxypropyl)benzamide]
< 6.30 | < 6.30 | < 6.30 | COc1cc(-c2cnc3cc(C(C)(C)C#N)ccn23)cc(OC(F)F)c1C(=O)N1CCC(OC)CC1 [Cpd 46, 2-[3-[3-(difluoromethoxy)-5-methoxy-4-(4-methoxypiperidine-1-carbonyl)phenyl]imidazo[1,2-a]pyridin-7-yl]-2-methyl-propanenitrile]
< 6.30 | < 6.30 | 7.00 to 8.00 | COc1cc(-c2cnc3cc(C(C)(C)C#N)ccn23)cc(OC(F)F)c1C(=O)N1CCC(F)(F)C1 [Cpd 47, 2-[3-[3-(difluoromethoxy)-4-(3,3-difluoropyrrolidine-1-carbonyl)-5-methoxy-phenyl]imidazo[1,2-a]pyridin-7-yl]-2-methyl-propanenitrile]
< 6.30 | < 6.30 | < 6.30 | COc1cc(-c2cnc3cc(C(C)(C)C#N)ccn23)cc(OC(F)F)c1C(=O)N1CCOCC1 [Cpd 48, 2-[3-[3-(difluoromethoxy)-5-methoxy-4-(morpholine-4-carbonyl)phenyl]imidazo[1,2-a]pyridin-7-yl]-2-methyl-propanenitrile]
< 6.30 | < 6.30 | < 6.30 | COc1cc(-c2cnc3cc(C(C)(C)C#N)ccn23)cc(OC(F)F)c1C(=O)N1CCN(C)CC1 [Cpd 49, 2-[3-[3-(difluoromethoxy)-5-methoxy-4-(4-methylpiperazine-1-carbonyl)phenyl]imidazo[1,2-a]pyridin-7-yl]-2-methyl-propanenitrile]
< 6.30 | < 6.30 | 6.30 to 7.00 | COc1cc(-c2cnc3cc(C(C)(C)C#N)ccn23)cc(OC(F)F)c1C(=O)N1CC(O)C1 [Cpd 50, 2-[3-[3-(difluoromethoxy)-4-(3-hydroxyazetidine-1-carbonyl)-5-methoxy-phenyl]imidazo[1,2-a]pyridin-7-yl]-2-methyl-propanenitrile]
< 6.30 | < 6.30 | 7.00 to 8.00 | COc1cc(-c2cnc3cc(C(C)(C)C#N)ccn23)cc(OC(F)F)c1C(=O)N1CC2(COC2)C1 [Cpd 51, 2-[3-[3-(difluoromethoxy)-5-methoxy-4-(2-oxa-6-azaspiro[3.3]heptane-6-carbonyl)phenyl]imidazo[1,2-a]pyridin-7-yl]-2-methyl-propanenitrile]
< 6.30 | < 6.30 | < 6.30 | COc1cc(-c2cnc3cc(C(C)(C)C#N)ccn23)cc(OC(F)F)c1C(=O)NCc1ccn(C)n1 [Cpd 52, 4-[7-(1-cyano-1-methyl-ethyl)imidazo[1,2-a]pyridin-3-yl]-2-(difluoromethoxy)-6-methoxy-N-[(1-methylpyrazol-3-yl)methyl]benzamide]
< 6.30 | < 6.30 | 7.00 to 8.00 | COc1cc(-c2cnc3cc(C(C)O)ccn23)cc(OC)c1C(=O)NCC(F)(F)F (stereo not drawn) [Cpd 54, 4-[7-(1-hydroxyethyl)imidazo[1,2-a]pyridin-3-yl]-2,6-dimethoxy-N-(2,2,2-trifluoroethyl)benzamide]
< 6.30 | < 6.30 | 7.00 to 8.00 | COc1cc(-c2cnc3cc(C(C)(C)N)ccn23)cc(OC)c1C(=O)NCC(F)(F)F [Cpd 55, 4-[7-(1-amino-1-methyl-ethyl)imidazo[1,2-a]pyridin-3-yl]-2,6-dimethoxy-N-(2,2,2-trifluoroethyl)benzamide]
< 6.30 | < 6.30 | 7.00 to 8.00 | COc1cc(-c2cnc3cc(C(C)(C)C(C)=O)ccn23)cc(OC)c1C(=O)NCC(F)(F)F [Cpd 56, 4-[7-(1,1-dimethyl-2-oxo-propyl)imidazo[1,2-a]pyridin-3-yl]-2,6-dimethoxy-N-(2,2,2-trifluoroethyl)benzamide]
< 6.30 | < 6.30 | 7.00 to 8.00 | COc1cc(-c2cnc3cc(C(C)(C)O)ccn23)cc(OC)c1C(=O)NCC(F)(F)F [Cpd 57, 4-[7-(1-hydroxy-1-methyl-ethyl)imidazo[1,2-a]pyridin-3-yl]-2,6-dimethoxy-N-(2,2,2-trifluoroethyl)benzamide]
